Experimental data: patent US6897206B2, “Combinations for the treatment of inflammatory disorders” (CombinatoRx, Inc., priority 2001, dated 2005)

Columns and labels:
TNFα secretion [1] = test: TNFα ELISA; suppression of TNFα secretion from phorbol 12-myristate 13-acetate and ionomycin stimulated PBMCs/blood; settings: Homo sapiens, PBMC; for inhibition at 0.004 µM: prednisolone 0.004 μM alone (amoxapine 0.000 μM); for inhibition at 0.017 µM: prednisolone 0.017 μM alone (amoxapine 0.000 μM); for inhibition at 0.069 µM: prednisolone 0.069 μM alone (amoxapine 0.000 μM); for inhibition at 0.277 µM: prednisolone 0.277 μM alone (amoxapine 0.000 μM); for inhibition at 0.05 µM: amoxapine 0.050 μM alone (prednisolone 0.000 μM); for inhibition at 0.199 µM: amoxapine 0.199 μM alone (prednisolone 0.000 μM); for inhibition at 0.797 µM: amoxapine 0.797 μM alone (prednisolone 0.000 μM)
Description: Stock solutions of amoxapine (16 mg/ml) (Sigma-Aldrich, St. Louis, Mo.; catalog number A129) and prednisolone (1.6 mg/ml) (Sigma-Aldrich, catalog number P6004) were made in dimethylsulfoxide (DMSO). The amoxapine master plates were made by adding 25 μl of the concentrated stock solution to columns 3, 9, and 15 (rows C through N) of a polypropylene 384-well storage plate that had been pre-filled with 75 μl of anhydrous DMSO. Using a TomTec Quadra Plus liquid handler, the 25 μl of amoxapine stock solution was serially diluted two-fold four times into the adjacent columns (columns 4-7, 10-13, 16-19). […] The prednisolone master plates were made by adding 25 μl of the concentrated prednisolone stock solution to the appropriate wells (row C, columns 3-8; row C, columns 9-14; row C, columns 15-20; row I, columns 3-8; row I, columns 9-14; row I, columns 15-20) of the appropriate prednisolone master polypropylene 384-well storage plate. These master plates had been pre-filled with 75 μl of anhydrous DMSO. Using the TomTec Quadra Plus liquid handler, the 25 μl was serially diluted two-fold four times in the adjacent rows (rows D-G, and J-M). […] Master plates were sealed and stored at −20 C until ready for use.
The final amoxapine/prednisolone combination plate was generated by transferring 1 μl from each of the amoxapine and prednisolone master plates to a dilution plate containing 100 μl of media (RPMI; Gibco BRL, #11875-085), 10% Fetal Bovine Serum (Gibco BRL, #25140-097), 2% Penicillin/Streptomycin (Gibco BRL, #15140-122)) using the TomTec Quadra Plus liquid handler. This dilution plate was then mixed and a 10 μl aliquot transferred to the final assay plate, which had been pre-filled with 40 μl/well RPMI media containing the appropriate stimulant to activate TNFα secretion (see below).
(§1) The compound dilution matrix was assayed using a TNFα ELISA method. Briefly, a 100 μl suspension of diluted human peripheral blood mononuclear cells (PBMCs) contained within each well of a polystyrene 384-well plate (NalgeNunc) was stimulated to secrete TNFα by treatment with a final concentration of 10 ng/ml phorbol 12-myristate 13-acetate (Sigma) and 750 ng/μl ionomycin (Sigma). Various concentrations of each test compound were added at the time of stimulation. After 16-18 hours of incubation at 37° C. in a humidified incubator, the plate was centrifuged and the supernatant transferred to a white opaque polystyrene 384 well plate (NalgeNunc, Maxisorb) coated with an anti-TNF antibody (PharMingen, #18631 D). After a two-hour incubation, the plate was washed (Tecan PowerWasher 384) with phosphate buffered saline (PBS) containing 0.1% Tween 20 (polyoxyethylene sorbitan monolaurate) and incubated for an additional one hour with another anti-TNF antibody that was biotin labeled (PharMingen, 18642D) and horseradish peroxidase (HRP) coupled to strepavidin (PharMingen, #13047E). After the plate was washed with 0.1% Tween 20/PBS, the HRP substrate (which contains luminol, hydrogen peroxide, and an enhancer such as para-iodophenol) was added to each well and light intensity measured using a LJL Analyst luminometer. Control wells contained a final concentration of 1 μg/ml cyclosporin A (Sigma).

TNFα secretion [2] = test: cells; settings: Homo sapiens, read-out: TNFα inhibition
Description: as §1

[3] = read-out: TNFα inhibition, Table 1
[4] = read-out: TNFα inhibition, Table 2

## C[C@]12C=CC(=O)C=C1CC[C@@H]1[C@@H]2[C@@H](O)C[C@@]2(C)[C@H]1CC[C@]2(O)C(=O)CO [Prednisolone, 1,4-pregnadiene-11beta, 17alpha,21-triol-3,20-dione]
TNFα secretion [1]; read-out: TNFα inhibition activity, follow-up secondary screen, prednisolone alone at 9 nM
  inhibition at 0.009 µM: 14%
TNFα secretion [1]; [3]
  inhibition at 0.004 µM: 2.69%
  inhibition at 0.017 µM: 19.1%
  inhibition at 0.069 µM: 22.3%
  inhibition at 0.277 µM: 26.8%
TNFα secretion [1]; read-out: TNFα inhibition, Table 1, prednisolone 1.110 μM alone (amoxapine 0.000 μM)
  inhibition at 1.11 µM: 27.6%
TNFα secretion [1]; [4]
  inhibition at 0.004 µM: 9.62%
  inhibition at 0.017 µM: 24.7%
  inhibition at 0.069 µM: 24.6%
  inhibition at 0.277 µM: 36.9%
TNFα secretion [1]; read-out: TNFα inhibition, Table 2, prednisolone 0.009 μM alone (amoxapine 0.000 μM)
  inhibition at 0.009 µM: 14.3%
TNFα secretion [1]; read-out: TNFα inhibition, Table 2, prednisolone 0.035 μM alone (amoxapine 0.000 μM)
  inhibition at 0.035 µM: 24.1%
TNFα secretion [1]; read-out: TNFα inhibition, Table 2, prednisolone 0.139 μM alone (amoxapine 0.000 μM)
  inhibition at 0.139 µM: 25.7%
TNFα secretion [1]; read-out: TNFα inhibition, Table 2, prednisolone 1.110 μM alone (amoxapine 0.000 μM)
  inhibition at 1.11 µM: 34.6%
TNFα secretion [1]; read-out: TNFα inhibition, follow-up secondary screen, 1110 nM prednisolone alone
  inhibition at 1.11 µM: 35%
TNFα secretion [1]; read-out: inhibit TNFα secretion, prednisolone alone at 1.11 μM
  inhibition at 1.11 µM: 28%
TNFα secretion [2]
  inhibition at 0.004 µM: 12.1%
  inhibition at 0.009 µM: 30.2%
  inhibition at 0.017 µM: 37.1%
  inhibition at 0.035 µM: 33.1%
  inhibition at 0.069 µM: 38.8%
  inhibition at 0.139 µM: 48.5%
  inhibition at 0.277 µM: 48.8%
  inhibition at 1.11 µM: 60.1%

## Clc1ccc2c(c1)C(N1CCNCC1)=Nc1ccccc1O2 [Amoxapine, 2-cloro-11(1-piperazinyl)dibenz[b,f][1,4]oxapine]
TNFα secretion [1]; read-out: TNFα inhibition activity, follow-up secondary screen, amoxapine alone at 400 nM
  inhibition at 0.4 µM: 16%
TNFα secretion [1]; [3]
  inhibition at 0.05 µM: 7.3%
  inhibition at 0.199 µM: 16.7%
  inhibition at 0.797 µM: 24.3%
TNFα secretion [1]; read-out: TNFα inhibition, Table 1, amoxapine 3.188 μM alone (prednisolone 0.000 μM)
  inhibition at 3.188 µM: 50.4%
TNFα secretion [1]; read-out: TNFα inhibition, Table 1, amoxapine 12.750 μM alone (prednisolone 0.000 μM)
  inhibition at 12.75 µM: 73%
TNFα secretion [1]; [4]
  inhibition at 0.05 µM: -3.31%
  inhibition at 0.199 µM: 14.2%
  inhibition at 0.797 µM: 21.9%
TNFα secretion [1]; read-out: TNFα inhibition, Table 2, amoxapine 0.100 μM alone (prednisolone 0.000 μM)
  inhibition at 0.1 µM: 3.6%
TNFα secretion [1]; read-out: TNFα inhibition, Table 2, amoxapine 0.398 μM alone (prednisolone 0.000 μM)
  inhibition at 0.398 µM: 16.4%
TNFα secretion [1]; read-out: TNFα inhibition, Table 2, amoxapine 1.593 μM alone (prednisolone 0.000 μM)
  inhibition at 1.593 µM: 37.1%
TNFα secretion [1]; read-out: TNFα inhibition, Table 2, amoxapine 3.187 μM alone (prednisolone 0.000 μM)
  inhibition at 3.187 µM: 48%
TNFα secretion [1]; read-out: TNFα inhibition, Table 2, amoxapine 6.373 μM alone (prednisolone 0.000 μM)
  inhibition at 6.373 µM: 64.4%
TNFα secretion [1]; read-out: TNFα inhibition, Table 2, amoxapine 12.747 μM alone (prednisolone 0.000 μM)
  inhibition at 12.747 µM: 80.9%
TNFα secretion [2]
  inhibition at 0.05 µM: 3%
  inhibition at 0.1 µM: 5.52%
  inhibition at 0.199 µM: 2.39%
  inhibition at 0.398 µM: 8.1%
  inhibition at 0.797 µM: 13.1%
  inhibition at 1.593 µM: 16.8%
  inhibition at 3.187 µM: 24.2%
  inhibition at 6.373 µM: 21.3%
  inhibition at 12.747 µM: 49.6%
